Values after ≈ are worked out from the molar mass of the structure shown.

Test [1] is described as follows: Cytotoxicity against human Tca8113 cells after 72 hrs by MTT assay. Type of test: functional, cell-based.
The next test relates to MG-63. The test is described as follows: Cytotoxicity against human MG63 cells after 72 hrs by MTT assay. In kind it is functional, cell-based. As to conditions: MG-63, 72 h.
A short description of test [2]: Inhibition of TNFalpha-induced NFkappaB (unknown origin) activation expressed in HEK293 cells preincubated for 1 hr followed by TNFalpha stimulation and measured after 1 hr by dual luciferase reporter gene assay. As to conditions: Homo sapiens. In kind it is cell-based.
For test [3], the system named is Vero. The test is described as follows: Cytotoxicity against African green monkey Vero cells. Type of test: cell-based. Particulars: Chlorocebus sabaeus.
The subject of test [4] is A549. The test is described as follows: Cytotoxicity against human A549 cells by MTT assay. In kind it is functional, cell-based.
Another test concerns SH-SY5Y. The test can be described thus: Cytotoxicity against human SH-SY5Y cells by MTT assay. Type of test: functional, cell-based.
Test [5] has as its system MCF7. The test is described as follows: Cytotoxicity against human MCF7 cells by MTT assay. In kind it is functional, cell-based.
The subject of the next test is NB-4. The test can be described thus: Cytotoxicity against human NB4 cells by MTT assay. In kind it is functional, cell-based.
Test [6] can be described thus: Cytotoxicity against human KATO III cells after 72 hrs by MTT assay. In kind it is functional, cell-based.
The test system of the next test is NCI-H187. The test can be described thus: Cytotoxicity against human NCI-H187 cells by resazurin microplate assay. In kind it is functional, cell-based.
The subject of test [7] is Vero. The test can be described thus: Cytotoxicity against African green monkey Vero cells by resazurin microplate assay. Type of test: cell-based. As to conditions: Chlorocebus sabaeus.
Test [8] relates to MCF7. The test can be described thus: Cytotoxicity against human MCF7 cells by resazurin microplate assay. In kind it is functional, cell-based.
Test [9] addresses Polyunsaturated fatty acid 5-lipoxygenase (Homo sapiens) (UniProt P09917). The test can be described thus: Inhibition of 5-LOX (unknown origin) at 30 ug/ml relative to control.
A further test has as its system RPMI-8226. The test is described as follows: Cytotoxicity against human RPMI8226 cells after 48 hrs by MTT assay. Particulars: RPMI-8226, 48 h. Type of test: functional, cell-based.
For test [10], the system named is HL-60. The test can be described thus: Cytotoxicity against human HL60 cells by CCK8 assay. In kind it is functional, cell-based.
For test [11], the system named is A549. The test can be described thus: Cytotoxicity against human A549 cells by CCK8 assay. Type of test: functional, cell-based.
The test system of test [12] is SMMC-7721. The test can be described thus: Cytotoxicity against human SMMC7721 cells by CCK8 assay. Type of test: functional, cell-based.
The subject of test [13] is MCF7. The test is described as follows: Cytotoxicity against human MCF7 cells by CCK8 assay. In kind it is functional, cell-based.
The subject of the next test is SW480. The test is described as follows: Cytotoxicity against human SW480 cells by CCK8 assay. In kind it is functional, cell-based.
A further test relates to NCI-H460. The test is described as follows: Cytotoxicity against human NCI-H460 cells. In kind it is functional, cell-based.
For the next test, the system named is A2780. The test can be described thus: Cytotoxicity against human A2780 cells by MTT assay. Type of test: functional, cell-based.
The test system of another test is L5178Y. The test is described as follows: Cytotoxicity against mouse L5178Y cells by MTT assay. In kind it is functional, cell-based.
The test system of another test is PC-12. The test can be described thus: Cytotoxicity against rat PC12 cells by MTT assay. Type of test: functional, cell-based.
Another test deals with T47D. The test is described as follows: Cytotoxicity against human T47D cells after 48 hrs by MTT assay. In kind it is functional, cell-based.
Test [14] relates to HL-60. The test is described as follows: Cytotoxicity against human HL60 cells by trypan blue exclusion assay. In kind it is functional, cell-based.
In the next test the test system is K562. The test can be described thus: Cytotoxicity against human K562 cells by trypan blue exclusion assay. Type of test: functional, cell-based.
Test [15] has as its system HCT-116. The test is described as follows: Cytotoxicity against human HCT116 cells by MTT assay. Type of test: functional, cell-based.
For another test, the system named is KB. The test can be described thus: Cytotoxicity against human KB cells by MTT assay. In kind it is functional, cell-based.
Another test relates to HepG2. The test can be described thus: Cytotoxicity against human HepG2 cells after 72 hrs by MTT assay. Type of test: functional, cell-based. Particulars: HepG2, 72 h.
Another test concerns MDA-MB-435. The test is described as follows: Cytotoxicity against human MDA-MB-435 cells after 72 hrs by MTT assay. In kind it is functional, cell-based. Particulars: MDA-MB-435, 72 h.
The subject of test [16] is HCT-116. The test is described as follows: Cytotoxicity against human HCT116 cells after 72 hrs by MTT assay. In kind it is functional, cell-based. Particulars: HCT-116, 72 h.
In test [17] the test system is MCF7. The test can be described thus: Cytotoxicity against human MCF7 cells after 48 hrs by MTT assay. Type of test: functional, cell-based. Particulars: mcf7.
For test [18], the system named is A549. The test can be described thus: Cytotoxicity against human A549 cells after 48 hrs by MTT assay. In kind it is functional, cell-based. Particulars: a549.
Test [19] deals with SMMC-7721. The test is described as follows: Cytotoxicity against human SMMC7721 cells after 48 hrs by MTT assay. Particulars: smmc-7721. In kind it is functional, cell-based.

Polyunsaturated fatty acid 5-lipoxygenase (Homo sapiens), sequence (P09917 whole entry): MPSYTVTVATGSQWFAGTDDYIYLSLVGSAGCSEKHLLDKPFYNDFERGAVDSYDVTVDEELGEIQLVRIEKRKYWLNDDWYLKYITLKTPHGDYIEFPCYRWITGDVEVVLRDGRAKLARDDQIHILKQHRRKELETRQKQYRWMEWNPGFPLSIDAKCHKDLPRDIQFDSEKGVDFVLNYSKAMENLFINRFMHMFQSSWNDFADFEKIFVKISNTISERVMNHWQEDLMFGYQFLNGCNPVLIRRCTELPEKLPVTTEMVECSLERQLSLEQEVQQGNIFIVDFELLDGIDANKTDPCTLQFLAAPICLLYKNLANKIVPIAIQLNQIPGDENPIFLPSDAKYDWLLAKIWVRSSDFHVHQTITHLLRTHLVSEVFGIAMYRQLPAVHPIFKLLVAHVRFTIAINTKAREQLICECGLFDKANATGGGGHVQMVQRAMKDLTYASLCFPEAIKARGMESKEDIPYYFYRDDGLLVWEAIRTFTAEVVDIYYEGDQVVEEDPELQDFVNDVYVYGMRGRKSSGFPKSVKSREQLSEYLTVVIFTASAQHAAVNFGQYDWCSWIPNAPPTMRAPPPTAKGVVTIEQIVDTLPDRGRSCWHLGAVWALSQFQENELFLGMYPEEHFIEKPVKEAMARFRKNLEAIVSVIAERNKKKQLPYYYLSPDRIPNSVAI

Consider `C[C@@H]1CC[C@@H]2[C@@H](C)C(=O)O[C@@H]2[C@@]12C=C(CO)CC2`, for which the IC50 in [1] came to 10 µM; with MG-63 it was 0.055 µM.

As for `CO[C@]12OC[C@@H](C)[C@H]1C[C@]1(C)[C@@H](C)CC[C@H](O)[C@@]13O[C@@H]23`, 19.2 µM corresponded to half-maximal inhibition in [2] (IC50).

Turning to `CC(C)(O)C(O)COc1ccc(CCO)cc1` (configuration not stated), the IC50 in test [1] came to 26 µM; with MG-63, 35 µM.

Turning to `C[C@H]1C/C=C/[C@H]2[C@@H]3O[C@]3(C)[C@@H](C)[C@H]3[C@H](Cc4ccc(O)cc4)NC(=O)[C@]32OC(=O)O/C=C/[C@@](C)(O)C1=O`, half-maximal inhibition in the test with Vero [3] (IC50) was put at 1.19 µM.

In the case of `COC(=O)[C@@H]1c2c(oc3cc(CO)cc(OC)c3c2=O)C=C[C@H]1O`, the IC50 with A549 [4] came out at 5.7 µM; in the test on SH-SY5Y it was 4.9 µM; in the test with MCF7 [5], 8.8 µM; in the test on NB-4, 8.6 µM.

As to `CC(=O)O[C@H]1C=CC(=O)O[C@H]1[C@H]1[C@H]2C=CC=C[C@](O)(O2)[C@H]1C`, the IC50 (in test [6]; with NCI-H187; in the test on Vero [7]; in the test with MCF7 [8]) was 1.95 to 40.2 µg/mL (≈ 6.37 to 131 µM) throughout.

`CCCCC/C=C/C1=C(CO)[C@@H](O)[C@H]2O[C@@]2(C/C=C(\C)C(=O)O)[C@H]1O` showed an inhibition in [9] of 67.4%.

In the test with RPMI-8226, `CO[C@H]1C[C@H](O)C2=C(C[C@H]3C(=C(C)C)CC[C@@]3(C)O2)C1=O` returned an IC50 of 92.1 µM.

Regarding `C=C1[C@@H](C)[C@H]2[C@H](Cc3ccccc3)NC(=O)[C@]23c2ccc(o2)CCC[C@@H](C)C/C=C/[C@H]3[C@@H]1O`, the IC50 with HL-60 [10], with A549 [11], with SMMC-7721 [12], in the test with MCF7 [13] and in the test with SW480 was 7.7 to 15.8 µM throughout.

Consider `CC1(C)C=Cc2cc3c(cc2O1)NC(=O)[C@]31C[C@@]23NC(=O)[C@]4(CCCN4C2=O)C[C@@H]3C1(C)C`, for which the IC50 in the test on NCI-H460 worked out at 55.9 µM.

In the case of `CC(C)=C1CC[C@@]2(C)OC3=C(C[C@@H]12)C(=O)[C@]1(O)CO[C@H]3C1`, the IC50 in the test with RPMI-8226 is 83.7 µM.

As for `C/C=C(\C)[C@H]1[C@@H](/C=C/C=C(\C)[C@@H](O)[C@@H](C)C(C)O)[C@@H]2C[C@@H](OC(=O)Cc3ccccc3)[C@](C)(O)C[C@H]2[C@@H]2O[C@@]21C` (some centres not stated), in the test with A2780, half-maximal inhibition (IC50) required 12.5 µM.

As for `COc1cccc2c1C(=O)c1c(O)c3c(c(O)c1C2=O)C[C@@](O)(C(=O)CO)C[C@@H]3O[C@H]1C[C@H](N)[C@H](O)[C@H](C)O1` [DOXORUBICIN], the figures for the IC50 with L5178Y and with PC-12 were 4.6 µM and 5.71 µM, respectively.

For `CCCC[C@H](C)/C=C(C)/C=C/C(=O)O[C@@]1(C)C(=O)C=C2C=C(/C=C/C(=O)O)OC=C2C1=O`, the IC50 in the test with T47D fell in the range of 1 to 10 µM.

Turning to `COc1cc(=O)oc(C)c1CCC(C)=O`, the IC50 with HL-60 [14] worked out at 0.18 µg/mL (≈ 0.856 µM); in the test on K562, 0.3 µg/mL (≈ 1.43 µM).

In turn, `C=CC1=CC2=CC(=O)[C@](C)(OC(=O)/C=C/C(C)=C/[C@@H](C)CCCC)C(=O)C2=CO1` returned an IC50 with T47D of 1 to 10 µM.

In the case of `CC1=C2[C@@H](O)C[C@@]2(C)[C@@H]2C[C@@H]3CC[C@@H](C)[C@@]2(CC1)C3(C)C`, the IC50 in the test with HCT-116 [15] and with KB was 25 µM throughout.

For the molecule `O=Cc1cc(/C=C/c2cc(O)cc(O)c2)ccc1O`, the IC50 in the test with HepG2, in the test on MDA-MB-435 and in the test on HCT-116 [16] was less than 50 µM in each case.

For the molecule `O=Cc1c(O)cc(O)cc1/C=C/c1ccc(O)cc1`, the IC50 with HepG2, in the test on MDA-MB-435 and with HCT-116 [16] was less than 50 µM in each case.

As for `CCCCC(O)/C=C/C1=C(CO)[C@@H](O)[C@@H](O)[C@](Cl)(C/C=C(\C)C(=O)O)C1=O` (some centres not stated), in [9], the inhibition turned out to be 48.3%.

As for `COc1cc(=O)oc2c1CO[C@@](C)(OC)[C@H]2C`, the results for the IC50 in the test on MCF7 [17], in the test on A549 [18] and in the test with SMMC-7721 [19] were 17.7 µM, 17.5 µM and 35.1 µM, respectively.

(Values after ChEMBL document CHEMBL4411258, “Novel natural compounds from endophytic fungi with anticancer activity” (Eur J Med Chem, 2018).)
